# Reference: patent publication US8497274B2, “Heterocyclic compound and use thereof” (Takeda Pharmaceutical Company Limited, priority 2008, dated 2013)
# Legend:
# BRAF (V600E) kinase = BRAF (V600E) kinase (Homo sapiens (Human), UniProt P15056, V600E); test: BRAF (V600E) kinase inhibitory activity; assay type: biochemical; conditions: BRAF (V600E) enzyme, GSTP1-MEK1 (K96R) substrate, compound 1.0 μM; read-out: Inhibitory rate (%) at 1.0 μM
# Method: A test compound (2.5 μL) dissolved in dimethyl sulfoxide (DMSO) was added to 37.5 μL of a reaction solution (25 mM HEPES (pH 7.5), 10 mM magnesium acetate, 1 mM dithiothreitol) containing 30 ng of BRAF (V600E) enzyme and 250 ng of recombinant protein GSTP1-MEK1 (K96R) prepared using FreeStyle 293 expression system (Invitrogen), and the mixture was incubated at room temperature for 10 min. 10 μL of ATP solution (2.5 μM ATP, 0.1 μCi [γ-^32P]ATP) was added to the obtained mixture, and the mixture was reacted at room temperature for 20 min. The reaction was quenched by adding 50 μL of ice-cooled 20% trichloroacetic acid (Wako Pure Chemical Industries, Ltd.) to the reaction solution. The reaction solution was allowed to stand at 4° C. for 30 min., and the acid-precipitable fraction was transferred to GF/C filter plate (Millipore Corporation) using cell harvester (PerkinElmer). The plate was dried at 45° C. for 60 min., and 40 μL of MicroScinti 0 (PerkinElmer) was added thereto. The radioactivity was measured using TopCount (PerkinElmer). The kinase inhibitory rate (%) of the test compound was calculated by the following formula: Inhibitory rate (%)=(1−(count of test compound−blank)÷(control−blank))×100
# The count of the solution reacted without addition of the compound was used as a “control”, and the count of the solution without the compound and enzyme was used as a “blank”.
# [1] = system: MEK1/2 phosphorylation in human colon cancer cell HT-29; test: Colon cancer cell HT-29 intracellular MEK phosphorylation inhibitory activity in vitro; assay type: cell-based; conditions: HT-29 cells; for IC50: 2 hrs treatment, phosphorylated MEK1/2 Western blot; for inhibition at 0.5 µM: MEK1/2 protein phosphorylation, compound 0.5 μM, read-out: Inhibitory rate (%) at 0.5 μM
# Method: 500 μL of a cell suspension of human colon cancer cell HT-29 (purchased from American Type Culture Collection (ATCC)) was plated in a 48-well plate (100,000 cells/well), and the cells were cultured overnight at 37° C. in the presence of 5% CO2, treated with a test compound (250 μL/well) diluted in 3-fold dilution series and cultured for 2 hrs. After 2 hrs, the culture medium containing the test compound was removed, and the cells were lysed with SDS sample buffer (100 μL/well) and heated at 95° C. for 5 min. Thereafter, the cells lysed with SDS sample buffer were applied to SDS-PAGE, and the protein was transferred onto Sequi-Blot™ PVDF Membrane (Bio-Rad) by the Western blot method. The PDVF membrane was blocked with a Block-Ace solution (Snow Brand Milk Products Co., Ltd) dissolved in phosphate buffered saline (MP Biochemicals) to 5% W/V, and reacted overnight with anti-phosphorylated MEK1/2 (Ser217/221) (Cell signaling #9121) diluted 1000-fold with phosphate buffered saline containing 0.4% Block-Ace. The membrane was washed with phosphate buffered saline containing 0.1% Tween 20 (Wako Pure Chemical Industries, Ltd.), and reacted at room temperature for 1 hr with HRP labeled rabbit IgG polyclonal antibody (Cell signaling #7074) diluted 1000-fold with phosphate buffered saline containing 0.4% Block-Ace. The membrane was washed in the same manner as above, chemical luminescence of a phosphorylated MEK1/2 protein labeled with the antibody, which was caused by ECL-plus Detection Reagent (Amersham bioscience), was detected by Luminescent Image Analyzer LAS-1000 (FUJIFILM Corporation). Taking the luminescence of the control group free of the test compound as 100%, the concentration (IC50 value) of the compound necessary for inhibiting the residual luminescence to 50% of the control group was calculated. In addition, MEK1/2 protein phosphorylation inhibitory rate (%) of the test compound at compound concentration 0.5 μM was calculated by the following formula. The results are shown in Table 2-B. Inhibitory rate (%)=(1−(luminescence of test compound−blank)÷(luminescence of control group−blank))×100
# [2] = system: human colon cancer cell HT-29; test: Colon cancer cell HT-29 growth suppressive activity in vitro; assay type: cell-based; conditions: for IC50: 72 h, HT-29 cells, 3 days culture, SRB staining; for inhibition at 10 µM: HT-29 cell proliferation, compound 10 μM, read-out: Inhibitory rate (%) at 10 μM
# Method: 100 μL of a cell suspension (3,000 cells/well) of human colon cancer cell HT-29 (purchased from ATCC) was plated in a 96-well plate, and the cells were cultured at 37° C. in the presence of 5% CO2. The next day, 100 μL of culture medium containing each test compound diluted in 2-fold dilution was added, and the cells were cultured for 3 days. The culture medium containing the test compound was removed, and the cells were washed with phosphate buffered saline (MP Biochemicals). A 50% trichloroacetic acid solution was added to the final concentration of 10% (v/v), and the mixture was stood overnight at 4° C., whereby the cells were fixed to the plate. Then, a dye SRB 0.4% (w/v) solution (dissolved in 1% acetic acid) was added at 50 μl/well, whereby the cell protein was fixed and stained (Skehan et al., Journal Of National Cancer Institute, vol. 82, pp. 1107-1112, 1990). The cells were washed 3 times with 1% acetic acid solution (200 μL/well), and 100 μL of an extract (10 mM Tris buffer) was added to extract the dye. The absorbance at an absorption wavelength 550 nm was measured, and cell amount was measured as a protein amount. Taking the protein amount of the control group free of the test compound solution as 100%, the proportion of the residual protein amount of each treatment group was determined and the concentration of the compound necessary for suppressing the residual cell amount to 50% of the control (IC50 value) was calculated. In addition, cell proliferation inhibitory rate (%) of the test compound at compound concentration 10 μM was calculated by the following formula. The results are shown in Table 3-B. Inhibitory rate (%)=(1−(absorbance of test compound−blank)÷(absorbance of control group−blank))×100
# Sequence of BRAF (V600E) kinase (P15056 457-717 V600E): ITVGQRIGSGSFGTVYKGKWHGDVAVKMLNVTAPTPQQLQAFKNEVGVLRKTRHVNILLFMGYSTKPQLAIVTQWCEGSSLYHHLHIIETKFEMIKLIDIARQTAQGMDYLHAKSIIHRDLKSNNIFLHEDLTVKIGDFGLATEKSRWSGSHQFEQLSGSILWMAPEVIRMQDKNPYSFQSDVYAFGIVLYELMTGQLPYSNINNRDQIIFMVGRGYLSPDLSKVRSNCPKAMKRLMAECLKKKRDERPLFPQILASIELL
SMILES,inhibition at 1 µM (BRAF (V600E) kinase),IC50 [1],inhibition at 0.5 µM [1],also measured
"CC(C)(C#N)c1cccc(C(=O)Nc2cccc(Oc3ccc4nc(NC(=O)C5CC5)sc4c3C#N)c2)c1 [Example 1, N-[3-({7-cyano-2-[(cyclopropylcarbonyl)amino]-1,3-benzothiazol-6-yl}oxy)phenyl]-3-(1-cyano-1-methylethyl)benzamide]",101%,–,–,–
"CC(=O)Nc1nc2ccc(Oc3cccc(NC(=O)c4cccc(C(C)(C)C#N)c4)c3)c(C#N)c2s1 [Example 11, N-(3-{[2-(acetylamino)-7-cyano-1,3-benzothiazol-6-yl]oxy}phenyl)-3-(1-cyano-1-methylethyl)benzamide]",101%,–,–,–
"CC(=O)Nc1nc2ccc(Oc3cccc(NC(=O)C(C)(C)c4cccc(Br)c4)c3)c(C#N)c2s1 [Example 13, N-(3-{[2-(acetylamino)-7-cyano-1,3-benzothiazol-6-yl]oxy}phenyl)-2-(3-bromophenyl)-2-methylpropanamide]",98%,–,–,–
"CC(=O)Nc1nc2ccc(Oc3cccc(NC(=O)Nc4ccc(Cl)c(C(F)(F)F)c4)c3)c(C#N)c2s1 [Example 21, N-{6-[3-({[4-chloro-3-(trifluoromethyl)phenyl]carbamoyl}amino)phenoxy]-7-cyano-1,3-benzothiazol-2-yl}acetamide]",100%,–,–,–
"N#Cc1c(Oc2ccc(F)c(NC(=O)Nc3ccc(C(F)(F)F)cc3)c2)ccc2nc(NC(=O)C3CC3)sc12 [Example 32, N-{7-cyano-6-[4-fluoro-3-({[4-(trifluoromethyl)phenyl]carbamoyl}amino)phenoxy]-1,3-benzothiazol-2-yl}cyclopropanecarboxamide]",–,< 300 nM,83%,–
"CC(C)(C#N)c1cccc(C(=O)Nc2cccc(Oc3ccc4nc(NC(=O)C5CC5)sc4c3[N+](=O)[O-])c2)c1 [Example 37, 3-(1-cyano-1-methylethyl)-N-[3-({2-[(cyclopropylcarbonyl)amino]-7-nitro-1,3-benzothiazol-6-yl}oxy)phenyl]benzamide]",–,–,–,IC50 [2]: < 500 nM; inhibition at 10 µM [2]: 93%
"CC(C)(C#N)c1cccc(C(=O)Nc2cccc(Oc3ccc4nc(NC(=O)C5CC5)sc4c3N)c2)c1 [Example 43, N-[3-({7-amino-2-[(cyclopropylcarbonyl)amino]-1,3-benzothiazol-6-yl}oxy)phenyl]-3-(1-cyano-1-methylethyl)benzamide]",–,–,–,IC50 [2]: < 500 nM; inhibition at 10 µM [2]: 100%
"CC(C)(C#N)c1cccc(C(=O)Nc2cccc(Oc3ccc4nc(NC(=O)C5CC5)sc4c3Cl)c2)c1 [Example 44, N-[3-({7-chloro-2-[(cyclopropylcarbonyl)amino]-1,3-benzothiazol-6-yl}oxy)phenyl]-3-(1-cyano-1-methylethyl)benzamide]",–,–,–,IC50 [2]: < 500 nM; inhibition at 10 µM [2]: 93%
"N#Cc1c(Oc2cccc(NC(=O)Nc3ccc(C(F)(F)F)nc3)c2)ccc2nc(NC(=O)C3CC3)sc12 [Example 51, N-{7-cyano-6-[3-({[6-(trifluoromethyl)pyridin-3-yl]carbamoyl}amino)phenoxy]-1,3-benzothiazol-2-yl}cyclopropanecarboxamide]",100%,–,–,–
"N#Cc1c(Oc2cccc(NC(=O)Nc3ccc(C(F)(F)F)cn3)c2)ccc2nc(NC(=O)C3CC3)sc12 [Example 52, N-{7-cyano-6-[3-({[5-(trifluoromethyl)pyridin-2-yl]carbamoyl}amino)phenoxy]-1,3-benzothiazol-2-yl}cyclopropanecarboxamide]",98%,–,–,–

# Continued, in another order:
inhibition at 1 µM (BRAF (V600E) kinase),IC50 [1],SMILES,inhibition at 0.5 µM [1],also measured
–,< 300 nM,"CC(=O)Nc1nc2ccc(Oc3cccc(NC(=O)Nc4ccc(C(C)(C)C)cc4)c3)c(C#N)c2s1 [Example 22, N-[6-(3-{[(4-tert-butylphenyl)carbamoyl]amino}phenoxy)-7-cyano-1,3-benzothiazol-2-yl]acetamide]",83%,–
–,< 300 nM,"CC(=O)Nc1nc2ccc(Oc3cccc(NC(=O)Cc4cccc(C(F)(F)F)c4)c3)c(C#N)c2s1 [Example 49, N-(3-{[2-(acetylamino)-7-cyano-1,3-benzothiazol-6-yl]oxy}phenyl)-2-[3-(trifluoromethyl)phenyl]acetamide]",63%,–
–,< 300 nM,"COC(=O)c1c(Oc2ccc(F)c(NC(=O)Cc3cccc(C(F)(F)F)c3)c2)ccc2nc(NC(=O)C3CC3)sc12 [Example 54, methyl 2-[(cyclopropylcarbonyl)amino]-6-[4-fluoro-3-({[3-(trifluoromethyl)phenyl]acetyl}amino)phenoxy]-1,3-benzothiazole-7-carboxylate]",100%,–
